{"source": "patent US20170129916A1", "about": "“NOVEL BETULINIC PROLINE IMIDAZOLE DERIVATIVES AS HIV INHIBITORS” (HETERO RESEARCH FOUNDATION, priority 2014, published 2017)", "key": {"[1]": {"test_system": "HIV-1 strains, for e.g., 92HT599", "assay": "Antiviral activity: p24 estimation in MT-2 cells infected with HIV-1", "assay_type": "cell-based", "details": "Human immunodeficiency virus 1, MT2, MT-2 cells infected with HIV-1, p24, ~96 hours; for IC50: read-out: Antiviral activity IC50 (nM) Efficacy IC50", "procedure": "MT-2 cells were infected with required number of TCID50's of HIV-1 strains, for e.g., 92HT599. The infected cells were plated at the concentration of 30, 000 cells per well in a 96 well plate. Test compound was added to the 96 well plate with the final concentration of DMSO (vehicle—not more than 1%). The plates are then incubated in a CO2 incubator for ˜96 hours (˜4 days) for viral infection. At the end of incubation period an aliquot from each well was taken for p24 estimation. The quantitation of p24 is an estimated index for antiviral activity of the compound. Percent inhibition was calculated with reference to control values (vehicle controls).\np-24 estimation was carried out using Advance biosciences kit as per the procedure detailed by supplier."}, "[2]": {"assay": "Single dose oral pharmacokinetic study", "assay_type": "in vivo", "details": "mouse, mice, 30 mg/kg, plasma; for AUC(0-t): read-out: Mice oral PK @30 mg/kg AUC 0-t; for Cmax: read-out: Mice oral PK @30 mg/kg Cmax", "procedure": "The test item was administered through oral route to animals (rat/mice) at 30 mg/kg dose in a suitable vehicle at 10 ml/kg dose volume. Blood samples (˜50 uL at each time point) were collected from retro-orbital plexus using K3 EDTA as anticoagulant in eppend; orf tubes at defined time intervals under light ether anesthesia. The samples were centrifuged at 3500×g to separate plasma and stored at −80° C. until analysis.\nSample analysis: Test samples were analyzed using LC-MS-MS after developing fit-for-purpose method for each of test compound."}}, "data": [{"smiles": "C=C(C)[C@@H]1CC[C@]2(C(=O)N3CCC[C@H]3c3ncc(-c4ccccn4)[nH]3)CC[C@]3(C)[C@H](CC[C@@H]4[C@@]5(C)CC[C@H](OC(=O)[C@H]6C[C@@H](C(=O)O)C6(C)C)C(C)(C)[C@@H]5CC[C@]43C)[C@@H]12", "note": "[Compound 1, (1R,3S)-2,2-dimethyl-3-((((1R,3aS,5aR,5bR,7aR,9S,11aR,11bR,13aR,13bR)-5a,5b,8,8,11a-pentamethyl-1-(prop-1-en-2-yl)-3a-((S)-2-(5-(pyridin-2-yl)-1H-imidazol-2-yl)pyrrolidine-1-carbonyl)icosahydro-1H-cyclopenta[a]chrysen-9-yl)oxy)carbonyl)cyclobutane-1-carboxylic acid]", "values": [{"measurement": "IC50", "setting": "[1]", "result": 8.06, "unit": "nM"}, {"measurement": "AUC(0-t)", "setting": "[2]", "result": 177, "unit": "µg·h/mL"}, {"measurement": "Cmax", "setting": "[2]", "result": 6290, "unit": "ng/mL"}]}, {"smiles": "C=C(C)[C@@H]1CC[C@]2(C(=O)N3CCC[C@H]3c3ncc(-c4cccc(F)c4)[nH]3)CC[C@]3(C)[C@H](CC[C@@H]4[C@@]5(C)CC[C@H](OC(=O)[C@H]6C[C@@H](C(=O)O)C6(C)C)C(C)(C)[C@@H]5CC[C@]43C)[C@@H]12", "note": "[Compound 4, (1R,3S)-3-((((1R,3aS,5aR,5bR,7aR,9S,11aR,11bR,13aR,13bR)-3a-((S)-2-(5-(3-fluorophenyl)-1H-imidazol-2-yl)pyrrolidine-1-carbonyl)-5a,5b,8,8,11a-pentamethyl-1-(prop-1-en-2-yl)icosahydro-1H-cyclopenta[a]chrysen-9-yl)oxy)carbonyl)-2,2-dimethylcyclobutane-1-carboxylic acid]", "values": [{"measurement": "IC50", "setting": "[1]", "result": 1.67, "unit": "nM"}, {"measurement": "AUC(0-t)", "setting": "[2]", "result": 398, "unit": "µg·h/mL"}, {"measurement": "Cmax", "setting": "[2]", "result": 14800, "unit": "ng/mL"}]}, {"smiles": "C=C(C)[C@@H]1CC[C@]2(C(=O)N3C[C@H](OCCOC)C[C@H]3c3nc(-c4ccc(F)cc4)c[nH]3)CC[C@]3(C)[C@H](CC[C@@H]4[C@@]5(C)CC[C@H](OC(=O)[C@H]6C[C@@H](C(=O)O)C6(C)C)C(C)(C)[C@@H]5CC[C@]43C)[C@@H]12", "note": "[Compound 9, (1R,3S)-3-((((1R,3aS,5aR,5bR,7aR,9S,11aR,11bR,13aR,13bR)-3a-((2S,4R)-2-(4-(4-fluorophenyl)-1H-imidazol-2-yl)-4-(2-methoxyethoxy)pyrrolidine-1-carbonyl)-5a,5b,8,8,11a-pentamethyl-1-(prop-1-en-2-yl)icosahydro-1H-cyclopenta[a]chrysen-9-yl)oxy)carbonyl)-2,2-dimethylcyclobutane-1-carboxylic acid]", "values": [{"measurement": "IC50", "setting": "[1]", "result": 5.52, "unit": "nM"}]}, {"smiles": "C=C(C)[C@@H]1CC[C@]2(C(=O)N3CCC[C@H]3c3nc(-c4ccccc4)c(C)[nH]3)CC[C@]3(C)[C@H](CC[C@@H]4[C@@]5(C)CC[C@H](OC(=O)[C@H]6C[C@@H](C(=O)O)C6(C)C)C(C)(C)[C@@H]5CC[C@]43C)[C@@H]12", "note": "[Compound 13, (1R,3S)-2,2-dimethyl-3-((((1R,3aS,5aR,5bR,7aR,9S,11aR,11bR,13aR,13bR)-5a,5b,8,8,11a-pentamethyl-3a-((S)-2-(5-methyl-4-phenyl-1H-imidazol-2-yl)pyrrolidine-1-carbonyl)-1-(prop-1-en-2-yl)icosahydro-1H-cyclopenta[a]chrysen-9-yl)oxy)carbonyl)cyclobutane-1-carboxylic acid]", "values": [{"measurement": "IC50", "setting": "[1]", "result": 4.9, "unit": "nM"}]}, {"smiles": "C=C(C)[C@@H]1CC[C@]2(C(=O)N3CCC[C@H](c4ncc(-c5ccccc5)[nH]4)C3)CC[C@]3(C)[C@H](CC[C@@H]4[C@@]5(C)CC[C@H](OC(=O)[C@H]6C[C@@H](C(=O)O)C6(C)C)C(C)(C)[C@@H]5CC[C@]43C)[C@@H]12", "note": "[Compound 20, (1R,3S)-2,2-dimethyl-3-((((1R,3aS,5aR,5bR,7aR,9S,11aR,11bR,13aR,13bR)-5a,5b,8,8,11a-pentamethyl-3a-((S)-3-(5-phenyl-1H-imidazol-2-yl)piperidine-1-carbonyl)-1-(prop-1-en-2-yl)icosahydro-1H-cyclopenta[a]chrysen-9-yl)oxy)carbonyl)cyclobutane-1-carboxylic acid]", "values": [{"measurement": "IC50", "setting": "[1]", "result": 58.4, "unit": "nM"}]}, {"smiles": "C=C(C)[C@@H]1CC[C@]2(C(=O)N3CCC[C@H]3c3ncc(-c4ccccc4)[nH]3)CC[C@]3(C)[C@H](CC[C@@H]4[C@@]5(C)CC[C@H](OC(=O)C6C(C(=O)O)C6(C)C)C(C)(C)[C@@H]5CC[C@]43C)[C@@H]12", "note": "(stereo partly drawn) [Compound 22, 2,2-di methyl-3-((((1R,3aS,5aR,5bR,7aR,9S,11aR,11bR,13aR,13bR)-5a,5b,8,8,11a-pentamethyl-3a-((S)-2-(5-phenyl-1H-imidazol-2-yl)pyrrolidine-1-carbonyl)-1-(prop-1-en-2-yl)-icosahydro-1H-cyclopenta[a]chrysen-9-yl)oxy)carbonyl)cyclopropane-1-carboxylic acid]", "values": [{"measurement": "IC50", "setting": "[1]", "result": 1000, "unit": "nM"}]}, {"smiles": "C=C(C)[C@@H]1CC[C@]2(C(=O)N3C[C@H](OC(C)C)C[C@H]3c3nc(-c4ccccc4)c[nH]3)CC[C@]3(C)[C@H](CC[C@@H]4[C@@]5(C)CC[C@H](OC(=O)[C@H]6C[C@@H](C(=O)O)C6(C)C)C(C)(C)[C@@H]5CC[C@]43C)[C@@H]12", "note": "[Compound 30, (1R,3S)-3-((((1R,3aS,5aR,5bR,7aR,9S,11aR,11bR,13aR,13bR)-3a-((2S,4R)-4-isopropoxy-2-(4-phenyl-1H-imidazol-2-yl)pyrrolidine-1-carbonyl)-5a,5b,8,8,11a-pentamethyl-1-(prop-1-en-2-yl)icosahydro-1H-cyclopenta[a]chrysen-9-yl)oxy)carbonyl)-2,2-dimethylcyclobutane-1-carboxylic acid]", "values": [{"measurement": "inhibition at 0.1 µM", "setting": "[1]", "result": 61, "unit": "%"}, {"measurement": "inhibition at 1 µM", "setting": "[1]", "result": 99, "unit": "%"}, {"measurement": "IC50", "setting": "[1]", "result": 89.6, "unit": "nM"}]}, {"smiles": "C=C(C)[C@@H]1CC[C@]2(C(=O)N3C[C@H](OCCOC)C[C@H]3c3nc(-c4cccc(F)c4)c[nH]3)CC[C@]3(C)[C@H](CC[C@@H]4[C@@]5(C)CC[C@H](OC(=O)CC(C)(C)C(=O)O)C(C)(C)[C@@H]5CC[C@]43C)[C@@H]12", "note": "[Compound 44, 4-(((1R,3aS,5aR,5bR,7aR,9S,11aR,1bR,13aR,13bR)-3a-((2S,4R)-2-(4-(3-fluorophenyl)-1H-imidazol-2-yl)-4-(2-methoxyethoxy)pyrrolidine-1-carbonyl)-5a,5b,8,8,11a-pentamethyl-1-(prop-1-en-2-yl)icosahydro-1H-cyclopenta[a]chrysen-9-yl)oxy)-2,2-dimethyl-4-oxo butanoic acid]", "values": [{"measurement": "IC50", "setting": "[1]", "result": 27.6, "unit": "nM"}]}, {"smiles": "CC1([C@@H]2CC[C@]3(C(=O)N4CCC[C@H]4c4nc5ccccc5[nH]4)CC[C@]4(C)[C@H](CC[C@@H]5[C@@]6(C)CC[C@H](OC(=O)[C@H]7C[C@@H](C(=O)O)C7(C)C)C(C)(C)[C@@H]6CC[C@]54C)[C@@H]23)CC1", "note": "[Compound 61, (1R,3S)-3-((((1R,3aS,5aR,5bR,7aR,9S,11aR,11bR,13aR,13bR)-3a-((S)-2-(1H-benzo[d]imidazol-2-yl)pyrrolidine-1-carbonyl)-5a,5b,8,8,11a-pentamethyl-1-(1-methylcyclopropyl)icosahydro-1H-cyclopenta[a]chrysen-9-yl)oxy)carbonyl)-2,2-dimethylcyclobutane-1-carboxylic acid]", "values": [{"measurement": "inhibition at 0.1 µM", "setting": "[1]", "result": 100, "unit": "%"}, {"measurement": "inhibition at 1 µM", "setting": "[1]", "result": 100, "unit": "%"}, {"measurement": "IC50", "setting": "[1]", "result": 56.9, "unit": "nM"}]}]}
